{
  "source": "ChEMBL document CHEMBL1142765",
  "about": "“Discodermolide analogues as the chemical component of combination bacteriolytic therapy” (Bioorg Med Chem Lett, 2005)",
  "type_in_all_cases": "functional, organism-based",
  "details_in_all_cases": "Homo sapiens",
  "key": {"A549": {"test_system": "A549", "test": "Inhibitory concentration […] exhibited against A549 cell line […]"}, "MCF7": {"test_system": "MCF7", "test": "Inhibitory concentration […] exhibited against MCF-7 cell line […]"}, "SK-OV-3": {"test_system": "SK-OV-3", "test": "Inhibitory concentration […] exhibited against SKOV3 cell line […]"}},
  "data": [
    {"smiles": "C=C/C=C\\[C@H](C)[C@H](OC(N)=O)[C@@H](C)[C@H](O)[C@@H](C)C/C(C)=C\\[C@H](C)[C@@H](O)[C@@H](C)/C=C\\[C@@H](O)C[C@@H]1OC(=O)C(C)=C[C@H]1C", "values": [
      {"measurement": "IC50", "setting": "A549", "result": 8.6, "unit": "nM"},
      {"measurement": "IC50", "setting": "MCF7", "result": 5.6, "unit": "nM"},
      {"measurement": "IC50", "setting": "SK-OV-3", "result": 3.4, "unit": "nM"}
    ]},
    {"smiles": "C=C/C=C\\[C@H](C)[C@H](OC(N)=O)[C@@H](C)[C@H](O)[C@@H](C)C/C=C\\[C@H](C)[C@@H](O)[C@@H](C)/C=C\\[C@@H](O)C[C@@H]1OC(=O)[C@H](C)[C@@H](O)[C@H]1C", "values": [
      {"measurement": "IC50", "setting": "A549", "result": 50, "unit": "nM"},
      {"measurement": "IC50", "setting": "MCF7", "result": 46, "unit": "nM"},
      {"measurement": "IC50", "setting": "SK-OV-3", "result": 35, "unit": "nM"}
    ]},
    {"smiles": "C=C/C=C\\[C@H](C)[C@H](OC(N)=O)[C@@H](C)[C@H](O)[C@@H](C)C/C(C)=C\\[C@H](C)[C@@H](O)[C@@H](C)/C=C\\[C@@H](O)C[C@@H]1OC(=O)C=C[C@H]1C", "values": [
      {"measurement": "IC50", "setting": "A549", "result": 3.7, "unit": "nM"},
      {"measurement": "IC50", "setting": "MCF7", "result": 2.1, "unit": "nM"},
      {"measurement": "IC50", "setting": "SK-OV-3", "result": 3.4, "unit": "nM"}
    ]},
    {"smiles": "C=C/C=C\\[C@H](C)[C@H](OC(N)=O)[C@@H](C)[C@H](O)[C@@H](C)C/C(C)=C\\[C@H](C)[C@@H](O)[C@@H](C)/C=C\\[C@@H](O)C[C@@H]1OC(=O)[C@H](C)[C@@H](O)[C@H]1C", "note": "[DISERMOLIDE]", "values": [
      {"measurement": "IC50", "setting": "A549", "result": 22, "unit": "nM"},
      {"measurement": "IC50", "setting": "MCF7", "result": 28, "unit": "nM"},
      {"measurement": "IC50", "setting": "SK-OV-3", "result": 21, "unit": "nM"}
    ]}
  ]
}
